Measurements as given in PubChem BioAssay AID1963848 (Molecular Pharmacology Branch, DTP, NCI, 2024).

Test system: 379773-124-R-J2-PDC spheroid viability
Test: Anticancer human tumor 379773-124-R-J2-PDC patient-derived endometrial carcinoma cell line growth inhibition [POLQ]
Conditions: spheroids with HUVEC and MSC; for IC50: curve of first compound; for viability, T/C: stronger effect = lower value; active means viability on the fitted dose curve at most 10% of control; inactive means the rest
In short: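 Complex spheroid viability model combining PDC tumour cells with endothelial (HUVEC) and MSC stromal cells. Novobiocin, ART-558 or RP6685 were tested singly and in combination with standard and investigational anticancer drugs. Each was titrated in half-log steps from near clinical Cmax, or from 10 microM where Cmax was unknown.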

[1] = second compound 0.0316 µM, first compound 0.0316 µM
[2] = second compound 0.0316 µM, first compound 0.1 µM
[3] = second compound 0.0316 µM, first compound 0.316 µM
[4] = second compound 0.0316 µM, first compound 1 µM
[5] = second compound 0.0316 µM, first compound 3.16 µM
[6] = second compound 0.0316 µM, first compound 10 µM
[7] = second compound 0.1 µM, first compound 0.0316 µM
[8] = second compound 0.1 µM, first compound 0.1 µM
[9] = second compound 0.1 µM, first compound 0.316 µM
[10] = second compound 0.1 µM, first compound 1 µM
[11] = second compound 0.1 µM, first compound 3.16 µM
[12] = second compound 0.1 µM, first compound 10 µM
[13] = second compound 0.316 µM, first compound 0.0316 µM
[14] = second compound 0.316 µM, first compound 0.1 µM
[15] = second compound 0.316 µM, first compound 0.316 µM
[16] = second compound 0.316 µM, first compound 1 µM
[17] = second compound 0.316 µM, first compound 3.16 µM
[18] = second compound 0.316 µM, first compound 10 µM
[19] = second compound 1 µM, first compound 0.0316 µM
[20] = second compound 1 µM, first compound 0.1 µM
[21] = second compound 1 µM, first compound 0.316 µM
[22] = second compound 1 µM, first compound 1 µM
[23] = second compound 1 µM, first compound 3.16 µM
[24] = second compound 1 µM, first compound 10 µM
[25] = second compound 3.16 µM, first compound 0.0316 µM
[26] = second compound 3.16 µM, first compound 0.1 µM
[27] = second compound 3.16 µM, first compound 0.316 µM
[28] = second compound 3.16 µM, first compound 1 µM
[29] = second compound 3.16 µM, first compound 3.16 µM
[30] = second compound 3.16 µM, first compound 10 µM
[31] = second compound 10 µM, first compound 0.0316 µM
[32] = second compound 10 µM, first compound 0.1 µM
[33] = second compound 10 µM, first compound 0.316 µM
[34] = second compound 10 µM, first compound 1 µM
[35] = second compound 10 µM, first compound 3.16 µM
[36] = second compound 10 µM, first compound 10 µM
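Further: spheroids exposed to drugs for seven days before readout.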
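Wherever viability, T/C is given: percent viability relative to DMSO vehicle control taken as 100%.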

COc1cc(C2c3cc4c(cc3C(OC3OC5COC(C)OC5C(O)C3O)C3COC(=O)C23)OCO4)cc(OC)c1O (stereo unspecified) + COC1C(OC(N)=O)C(O)C(Oc2ccc3c(O)c(NC(=O)c4ccc(O)c(CC=C(C)C)c4)c(=O)oc3c2C)OC1(C)C
1190 nM: IC50 (second compound 0.0316 µM) | IC50 (second compound 10 µM)
1370 nM: IC50 (second compound 1 µM) | IC50 (second compound 3.16 µM)
1490 nM: IC50 (second compound 0.316 µM)
active: viability, T/C [6] 9.47% | viability, T/C [12] 10.2% | viability, T/C [18] 9.75% | viability, T/C [24] 9.19% | viability, T/C [30] 8.54%
inactive: viability, T/C [1] 97.5% | viability, T/C [2] 82.6% | viability, T/C [3] 86.2% | viability, T/C [4] 56.9% | viability, T/C [5] 13.8% | viability, T/C [7] 95.5% | viability, T/C [8] 80.6% | viability, T/C [9] 80% | viability, T/C [10] 70.5% | viability, T/C [11] 13% | viability, T/C [13] 95.8% | viability, T/C [14] 80.9% | viability, T/C [15] 81.3% | viability, T/C [16] 70.5% | viability, T/C [17] 11.1% | viability, T/C [19] 93.1% | viability, T/C [20] 94.6% | viability, T/C [21] 81.6% | viability, T/C [22] 64.8% | viability, T/C [23] 12.2% | viability, T/C [25] 76.1% | viability, T/C [26] 84.7% | viability, T/C [27] 83% | viability, T/C [28] 64% | viability, T/C [29] 12.9% | viability, T/C [31] 85.2% | viability, T/C [32] 84.4% | viability, T/C [33] 89.3% | viability, T/C [34] 56.3% | viability, T/C [35] 14.1% | viability, T/C [36] 9.29%
1510 nM: IC50 (second compound 0.1 µM)

Nc1ccn(C2OC(CO)C(O)C2(F)F)c(=O)n1 (stereo unspecified) + COC1C(OC(N)=O)C(O)C(Oc2ccc3c(O)c(NC(=O)c4ccc(O)c(CC=C(C)C)c4)c(=O)oc3c2C)OC1(C)C
active: viability, T/C [2] 7.21% | viability, T/C [3] 8.07% | viability, T/C [4] 10.4% | viability, T/C [5] 7.9% | viability, T/C [6] 5.28% | viability, T/C [8] 7.13% | viability, T/C [9] 9.39% | viability, T/C [10] 8.07% | viability, T/C [11] 8.46% | viability, T/C [12] 7.04% | viability, T/C [14] 9.44% | viability, T/C [15] 8.7% | viability, T/C [16] 9.16% | viability, T/C [17] 11.3% | viability, T/C [18] 9.38% | viability, T/C [20] 7.26% | viability, T/C [21] 9.54% | viability, T/C [22] 8.14% | viability, T/C [23] 9.07% | viability, T/C [24] 7.06% | viability, T/C [26] 7.44% | viability, T/C [27] 8.41% | viability, T/C [28] 9.67% | viability, T/C [29] 7.02% | viability, T/C [30] 6.42% | viability, T/C [32] 5.7% | viability, T/C [33] 9.27% | viability, T/C [34] 8.67% | viability, T/C [35] 8.15% | viability, T/C [36] 8.46%
< 31.6 nM: IC50 (second compound 0.0316 µM) | IC50 (second compound 0.1 µM) | IC50 (second compound 0.316 µM) | IC50 (second compound 1 µM) | IC50 (second compound 3.16 µM) | IC50 (second compound 10 µM)
inactive: viability, T/C [1] 14.1% | viability, T/C [7] 13.9% | viability, T/C [13] 14.2% | viability, T/C [19] 19.4% | viability, T/C [25] 16.1% | viability, T/C [31] 17.5%

O=c1[nH]cc(F)c(=O)[nH]1 + COC1C(OC(N)=O)C(O)C(Oc2ccc3c(O)c(NC(=O)c4ccc(O)c(CC=C(C)C)c4)c(=O)oc3c2C)OC1(C)C
inactive: viability, T/C [1] 85.1% | viability, T/C [2] 83.2% | viability, T/C [3] 85.4% | viability, T/C [4] 80.3% | viability, T/C [5] 69.1% | viability, T/C [6] 51.8% | viability, T/C [7] 90.7% | viability, T/C [8] 88.8% | viability, T/C [9] 81.8% | viability, T/C [10] 86.2% | viability, T/C [11] 68.6% | viability, T/C [12] 61% | viability, T/C [13] 92.7% | viability, T/C [14] 90.4% | viability, T/C [15] 80.9% | viability, T/C [16] 78% | viability, T/C [17] 75.8% | viability, T/C [18] 56.6% | viability, T/C [19] 82.6% | viability, T/C [20] 77.2% | viability, T/C [21] 88.4% | viability, T/C [22] 74.6% | viability, T/C [23] 71.1% | viability, T/C [24] 60.3% | viability, T/C [25] 78.2% | viability, T/C [26] 82.6% | viability, T/C [27] 90.4% | viability, T/C [28] 70.8% | viability, T/C [29] 76.6% | viability, T/C [30] 57.5% | viability, T/C [31] 75.6% | viability, T/C [32] 78.5% | viability, T/C [33] 76.1% | viability, T/C [34] 71% | viability, T/C [35] 70.6% | viability, T/C [36] 55.3%
> 10000 nM: IC50 (second compound 0.0316 µM) | IC50 (second compound 0.1 µM) | IC50 (second compound 0.316 µM) | IC50 (second compound 1 µM) | IC50 (second compound 3.16 µM) | IC50 (second compound 10 µM)
